Measured values published in ChEMBL document CHEMBL5576061, “The role of the methoxy group in approved drugs” (Eur J Med Chem, 2024).
Each block holds one compound with its values, some of them ahead of it.

Tests used:
[1] = molecular target: T1, Non-receptor tyrosine-protein kinase TYK2 (Homo sapiens, UniProt P29597); experiment: Inhibition of TYK2 (unknown origin) (575 to 869 residues) by HTRF assay
[2] = test system: Human immunodeficiency virus 1; experiment: Antiviral activity against HIV-1 infected in human MT4 cells assessed as inhibition of viral growth; assay type: functional, organism-based; settings: Human immunodeficiency virus 1, MT4
[3] = test system: Human immunodeficiency virus 1; experiment: Antiviral activity against HIV-1 HTLV-IIIB infected in human MT4 cells assessed as reduction in virus induced cytopathic effect by immunofluorescence assay; assay type: functional, organism-based; settings: Human immunodeficiency virus 1, MT4
[4] = test system: Human immunodeficiency virus 1; experiment: Antiviral activity against HIV-1 3B infected in human MT4 cells assessed as reduction in virus-induced cytopathic effect incubated for 4 days by MTT assay; assay type: functional, organism-based; settings: Human immunodeficiency virus 1, 3B, MT4, 96 h
[5] = molecular target: T1, Non-receptor tyrosine-protein kinase TYK2; experiment: Inhibition of TYK2 (unknown origin)
[6] = Inhibition of tyrosine kinase (unknown origin); parameters: species or system Homo sapiens
Hepatitis C virus [7] = experiment: Antiviral activity against Hepatitis C virus genotype 1a infected in human Huh-7 cells assessed as reduction in viral infection; assay type: functional, organism-based, Hepacivirus hominis
Hepatitis C virus [8] = experiment: Antiviral activity against Hepatitis C virus genotype 1b infected in human Huh-7 cells assessed as reduction in viral infection; assay type: functional, organism-based, Hepacivirus hominis
[9] = molecular target: Human immunodeficiency virus type 1 integrase (Human immunodeficiency virus 1, UniProt Q7ZJM1); experiment: Inhibition of HIV-1 integrase
Sequence of Human immunodeficiency virus type 1 integrase (Q7ZJM1 whole entry): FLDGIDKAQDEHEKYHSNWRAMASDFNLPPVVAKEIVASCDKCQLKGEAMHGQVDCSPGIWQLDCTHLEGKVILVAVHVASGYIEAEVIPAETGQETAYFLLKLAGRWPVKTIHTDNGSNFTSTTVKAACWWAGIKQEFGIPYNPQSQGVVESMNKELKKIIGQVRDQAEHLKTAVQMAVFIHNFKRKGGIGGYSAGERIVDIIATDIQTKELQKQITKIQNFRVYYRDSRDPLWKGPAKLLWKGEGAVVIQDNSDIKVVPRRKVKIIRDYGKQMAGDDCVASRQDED

T1 sequence (P29597 whole entry, the tested form may be a part): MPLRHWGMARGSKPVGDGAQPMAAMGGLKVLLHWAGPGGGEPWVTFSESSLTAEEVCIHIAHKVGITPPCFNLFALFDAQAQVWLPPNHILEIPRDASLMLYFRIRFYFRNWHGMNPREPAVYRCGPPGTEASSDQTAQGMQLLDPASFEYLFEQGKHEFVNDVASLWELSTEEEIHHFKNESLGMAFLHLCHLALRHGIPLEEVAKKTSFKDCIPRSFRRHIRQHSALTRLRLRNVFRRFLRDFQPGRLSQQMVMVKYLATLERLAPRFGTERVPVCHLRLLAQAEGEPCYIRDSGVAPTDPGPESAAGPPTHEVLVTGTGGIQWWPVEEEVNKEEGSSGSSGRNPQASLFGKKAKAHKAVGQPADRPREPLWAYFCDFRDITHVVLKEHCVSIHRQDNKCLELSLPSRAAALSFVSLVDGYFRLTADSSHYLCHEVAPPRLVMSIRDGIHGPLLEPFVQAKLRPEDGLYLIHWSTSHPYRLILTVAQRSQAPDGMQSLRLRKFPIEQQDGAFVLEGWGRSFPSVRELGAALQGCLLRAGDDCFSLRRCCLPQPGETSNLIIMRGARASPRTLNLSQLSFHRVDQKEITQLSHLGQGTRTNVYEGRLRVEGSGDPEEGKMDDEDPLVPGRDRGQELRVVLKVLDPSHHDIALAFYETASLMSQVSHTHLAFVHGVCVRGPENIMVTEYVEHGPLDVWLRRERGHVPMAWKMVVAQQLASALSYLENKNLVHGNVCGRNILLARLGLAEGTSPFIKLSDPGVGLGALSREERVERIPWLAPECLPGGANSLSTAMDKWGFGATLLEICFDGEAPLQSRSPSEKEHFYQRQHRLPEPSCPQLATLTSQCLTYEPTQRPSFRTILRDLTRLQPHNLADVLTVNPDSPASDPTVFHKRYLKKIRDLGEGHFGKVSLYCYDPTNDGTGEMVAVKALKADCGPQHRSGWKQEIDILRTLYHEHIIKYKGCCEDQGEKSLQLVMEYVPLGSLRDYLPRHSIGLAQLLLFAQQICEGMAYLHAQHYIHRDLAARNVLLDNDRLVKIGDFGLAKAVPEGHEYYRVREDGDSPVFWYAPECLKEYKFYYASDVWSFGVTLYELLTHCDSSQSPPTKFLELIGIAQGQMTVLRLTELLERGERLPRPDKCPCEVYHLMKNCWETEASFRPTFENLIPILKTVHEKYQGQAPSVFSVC

Structure (SMILES): CNC(=O)c1cccc(Nc2cc(Nc3ccc(F)cn3)ncc2C(=O)NC)c1
IC50 [1]: 44 nM

Structure (SMILES): O=C(O)c1cn(CCO)c2ccc(Cc3cccc(Cl)c3F)cc2c1=O
EC50 [2]: 76.3 nM

Structure (SMILES): C=C[C@@H]1C[C@]1(NC(=O)[C@@H]1C[C@@H](Oc2ncc(OC)c3ccc(Cl)cc23)CN1C(=O)[C@@H](NC(=O)OC(C)(C)C)C(C)(C)C)C(=O)NS(=O)(=O)C1CC1
EC50 [3]: 6 nM

Structure (SMILES): O=C(O)c1c[nH]c2ccc(Cc3cccc(Cl)c3F)cc2c1=O
EC50 [2]: 805 nM

Structure (SMILES): CNC(=O)c1ccc(OC)c2c(C(=O)C(=O)N3CCN(C(=O)c4ccccc4)CC3)c[nH]c12
EC50 [4]: 0.76 nM

Structure (SMILES): CNC(=O)c1cnc(NC(=O)C2CC2)cc1Nc1cccc(-c2ncn(C)n2)c1OC
IC50 [5]: 0.7 nM

Structure (SMILES): CNC(=O)c1cnc(Nc2ccc(F)cn2)cc1Nc1cccc(C(=O)NC)c1OC
IC50 [1]: 0.6 nM

Structure (SMILES): COc1ccc2c(c1)[C@@H]1C[C@]1(C(=O)N1C[C@@H](C)O[C@@H](C)C1)Cn1c-2c(C2CCCCC2)c2ccc(C(=O)NS(=O)(=O)N(C)C)cc21
EC50 (Hepatitis C virus [7]): 12 nM | EC50 (Hepatitis C virus [8]): 24 nM

Structure (SMILES): [2H]C([2H])([2H])NC(=O)c1cnc(NC(=O)C2CC2)cc1Nc1cccc(-c2ncn(C)n2)c1OC
IC50 [5]: 0.3 nM

Structure (SMILES): CNC(=O)c1cnc(Nc2cc(C)c(F)cn2)cc1Nc1cccc(-c2ncn(C)n2)c1OC
IC50 [5]: 0.4 nM

Structure (SMILES): C=C[C@@H]1C[C@]1(NC(=O)[C@@H]1C[C@@H](Oc2ncc(OC)c3ccccc23)CN1C(=O)[C@@H](NC(=O)OC(C)(C)C)C(C)(C)C)C(=O)NS(=O)(=O)C1CC1
EC50 [3]: 19 nM | IC50 [9]: 2 nM

Structure (SMILES): O=C(O)c1cnc2ccc(Cc3ccccc3)cc2c1O
EC50 [2]: > 30000 nM

Structure (SMILES): CNC(=O)c1ncc(OC)c2c(C(=O)C(=O)N3CCN(C(=O)c4ccccc4)CC3)c[nH]c12
EC50 [4]: 0.28 nM

Structure (SMILES): C=C[C@@H]1C[C@]1(NC(=O)[C@@H]1C[C@@H](Oc2nccc3ccc(Cl)cc23)CN1C(=O)[C@@H](NC(=O)OC(C)(C)C)C(C)(C)C)C(=O)NS(=O)(=O)C1CC1
EC50 [3]: 20 nM | IC50 [9]: 12 nM

Structure (SMILES): C=C[C@@H]1C[C@]1(NC(=O)[C@@H]1C[C@@H](Oc2nccc3ccccc23)CN1C(=O)[C@@H](NC(=O)OC(C)(C)C)C(C)(C)C)C(=O)NS(=O)(=O)C1CC1
EC50 [3]: 60 nM | IC50 [9]: 7 nM

Other lines, results leading:

IC50 [6]: > 1000 nM
Structure (SMILES): N#Cc1cnc2cc(O)c(O)cc2c1Nc1ccc(Cl)cc1Cl

IC50 [6]: 30 nM
Structure (SMILES): COc1cc2ncc(C#N)c(Nc3ccc(Cl)cc3Cl)c2cc1OC

IC50 [6]: 0.8 nM
Structure (SMILES): COc1cc(Nc2c(C#N)cnc3cc(OCCCN4CCOCC4)c(OC)cc23)c(Cl)cc1Cl

IC50 [6]: 320 nM
Structure (SMILES): COc1ccc2ncc(C#N)c(Nc3ccc(Cl)cc3Cl)c2c1

IC50 [6]: 4.3 nM
Structure (SMILES): COc1cc(Nc2c(C#N)cnc3cc(OC)c(OC)cc23)c(Cl)cc1Cl

IC50 [6]: 190 nM
Structure (SMILES): COc1cc2ncc(C#N)c(Nc3cc(O)c(Cl)cc3Cl)c2cc1OC

IC50 [6]: 200 nM
Structure (SMILES): COc1ccc2c(Nc3ccc(Cl)cc3Cl)c(C#N)cnc2c1

IC50 [6]: 1200 nM
Structure (SMILES): CCOc1cc(Nc2c(C#N)cnc3cc(OC)c(OC)cc23)c(Cl)cc1Cl

IC50 [6]: > 1000 nM
Structure (SMILES): N#Cc1cnc2ccccc2c1Nc1ccc(Cl)cc1Cl

IC50 [6]: 1.2 nM
Structure (SMILES): COc1cc(Nc2c(C#N)cnc3cc(OCCCN4CCN(C)CC4)c(OC)cc23)c(Cl)cc1Cl [BOSUTINIB]
